Structures can show the parent of a compound that is named as a salt. Where two headings read alike, the source gives them in different places.
What was measured:
[1] = system: male NMRI mice (isolation induced aggressive behaviour); assay: Isolation induced aggressive behaviour test; assay type: in vivo; conditions: Mus musculus, sc, read-out: ED50, isolation induced aggressive behaviour test
Excerpt: Test 1: Isolation induced aggressive behaviour test
Male mice subjected to prolonged isolation develop aggressive behaviour against each other when paired (Yen, C. Y. et al., Arch. Int. Pharmacodyn. 123, 179, (1959): Valzelli, L., Adv. Pharmacol. 5, 79 (1967)). […] The clinical correlation of this test indicates tranquillizing and anxiolytic activities as well as antiaggressive properties as such (Duncan, R. L. et al., J Med. Chem. 13, 1 (1970)).
This type of aggression is interesting because it is known that this kind of emotional behaviour might be located in limbic structures in the brain (MacLean, P.D., Psychosom. Med. 11, 338 (1949)).
Every week male NMRI mice, weighing 20-22 g, were isolated in Makrolon cages for three weeks with diet and water ad libitum. A piece of cardboard was placed between the cages to prevent visual contact.
To test aggressiveness the mice were paired in a neutral area, a beaker (14 cm high and diameter 14 cm). A pair is considered aggressive if both the animals show clear signs of fighting within 5 minutes. This fighting is characterized by biting and vocalization. […] Animals showing no aggression are discarded. […] The test substance is administered s.c. (0.2-0.4 ml/20 g). The mice are paired 0.5 hour after the injection for trials of 5 minutes duration.
The ED50 -value (mg/kg) reported is the dose inhibiting aggressive behaviour among 50 per cent of the pairs 0.5 hour after drug administration.

[2] = system: female rats (conditioned avoidance response); assay: Conditioned avoidance response (CAR); assay type: in vivo; conditions: Rattus norvegicus, sc, 1.5 h, read-out: ED50, conditioned avoidance response
Protocol: Test 2: Conditioned avoidance response (CAR)
The effect of the test compounds on CAR was evaluated in a shuttle box, manufactured by Ugo Basile, Italy. The female rats, weighing 150 g, were trained to avoid an electric shock (unconditioned stimulus--US) by escaping from one compartment to the other when the light from a 15W lamp is switched on (conditioned stimulus--CS). When they responded to the CS, a conditioned response (CR) was considered to have been elicited. Rats showing a stable CR of more than 80% after a three weeks' training program were used in the experiments. Groups of six rats were subcutaneously administered with various doses of the test compounds. 11/2 hours after the administration each rat was placed in the experimental box and the effect on CR was evaluated. ED50 -values refer to the dose inhibiting CR in 50% of the animals. The mechanisms regulating conditioned responses are very complex. Both catecholaminergic and hormonal factors are of importance.

[3] = system: female NMRI mice (writhing behaviour); assay: Writhing test (acetic acid); assay type: in vivo; conditions: Mus musculus, sc, 20 minutes before acetic acid (0.5%, 15 ml/kg i.p.), dose blocking writhing in 50% of the animals
Protocol: The writhing test is a frequently used test of analgetic properties (Witkin, L. B. et al., J. Pharmacol. Exp. Ther. 133, 400 (1961)). If acetic acid (0.5%, 15 ml/kg) is injected intraperitoneally in mice (NMRI) they will without exception develop a writhing behaviour characterized by stretching their hind legs. The drugs to be tested were administered subcutaneously to 6 female mice at each dose 20 minutes before the injection of the acetic acid. After 10 minutes the behaviour of the mice was studied in 5 minutes. The ED50 -value is the dose blocking the writhing behaviour in 50% of the animals during the 5 minutes study period. [drawing 12]

[4] = system: male NMRI mice (isolation induced aggressive behaviour); conditions: result in words; clinically used drugs; cited from earlier work
[5] = mice, dose inhibiting aggressive behaviour among 50 per cent of the pairs 0.5 hour after administration
[6] = s.c., rats, dose inhibiting CR in 50% of the animals, 1 1/2 hours after administration

Compound: CN(C)CCCN1c2ccccc2Sc2ccc(Cl)cc21 [Chlorpromazine]
- ED50 ([1]; 0.5 h): 1.4 mg/kg
- ED50 [2]: 3.5 mg/kg

Compound: CCNC(=O)N1CCN(CCCCc2ccc(F)cc2)CC1 [1:15, 4-.vertline.4-(p-fluorophenyl)butyl.vertline.-N-ethyl-1-piperazinecarboxamide hydrochloride]
- ED50 [1, 5]: 3.5 mg/kg
- ED50 [3]: 3.7 mg/kg
- ED50 [2, 6]: 7.9 mg/kg

Compound: CSc1ccc2c(c1)N(CCC1CCCCN1C)c1ccccc1S2 (stereo not drawn) [Thioridazine]
- ED50 [1, 5]: 5 mg/kg
- ED50 [2, 6]: 41 mg/kg

Compound: CN1C(=O)CN=C(c2ccccc2)c2cc(Cl)ccc21 [Diazepam]
- activity on isolation induced aggressive behaviour, known drugs [4]: active on this kind of aggressive behaviour

Compound: CCNC(=O)N1CCN(CCCC(=O)c2ccc(F)cc2)CC1 [1:3, 4-.vertline.4-(p-fluorophenyl)-4-oxobutyl.vertline.-N-ethyl-1-piperazinecarboxamide hydrochloride]
- ED50 [1, 5]: 1.7 mg/kg
- ED50 [3]: 1.9 mg/kg
- ED50 [2, 6]: 12 mg/kg

Compound: CN(C)CCC=C1c2ccccc2CCc2ccccc21 [Amitriptyline]
- ED50 [1, 5]: 5 mg/kg
